Earlier results in US6855835B2, “Allomorph of isomer Z hydrochloride of alkylaminofurane derivative” (Pharmexcel SRL, priority 2000, dated 2005).

How the values were obtained:
[1] = form 2 compared with form 1; quoted from prior patent (6)
histamine H2-receptors = settings: Z isomer compared with E isomer; suggested by authors (10, 11)
histamine H2-receptors, sequence (P25021 whole entry): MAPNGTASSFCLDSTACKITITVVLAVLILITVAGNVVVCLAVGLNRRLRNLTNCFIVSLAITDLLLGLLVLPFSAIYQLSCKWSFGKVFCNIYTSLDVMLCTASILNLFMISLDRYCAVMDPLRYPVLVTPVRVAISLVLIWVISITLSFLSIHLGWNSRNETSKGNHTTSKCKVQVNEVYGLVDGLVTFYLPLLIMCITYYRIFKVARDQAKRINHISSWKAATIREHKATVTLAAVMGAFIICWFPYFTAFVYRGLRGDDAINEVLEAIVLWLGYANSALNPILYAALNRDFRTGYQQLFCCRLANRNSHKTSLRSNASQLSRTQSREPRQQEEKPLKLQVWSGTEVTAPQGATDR

| SMILES | hygroscopicity [1] | affinity for histamine H2-receptors (histamine H2-receptors) |
| --- | --- | --- |
| CNC(=C[N+](=O)[O-])NCCSCc1ccc(CN(C)C)o1.Cl (racemic) [form 2, N-[2-[[[5-(dimethylamino)methyl-2-furanyl]methyl]thio]ethyl]-N′-methyl-2-nitro-1,1-ethenediamine hydrochloride] | less hygroscopic than form 1 |  |
| CN/C(=C/[N+](=O)[O-])NCCSCc1ccc(CN(C)C)o1 (single isomer, unassigned) [Z, (N-[2-[[[5-(dimethylamino)methyl-2-furanyl]methyl]thio]ethyl]-N′-methyl-2-nitro-1,1-ethenediamine)] |  | greater configurational affinity |
